From PubChem BioAssay AID1963830 (Molecular Pharmacology Branch, DTP, NCI, 2024)

Test system: 922993-354-T-J3-PDC complex spheroid viability
Assay: Anticancer human tumor 922993-354-T-J3-PDC patient-derived endometrial carcinoma cell line growth inhibition [POLQ]
Settings: for IC50: curve of first compound; for viability, T/C: stronger effect = lower value; active means viability on the fitted dose curve at most 10% of control; inactive means the rest
How it was run: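 Complex spheroid viability model combining PDC tumour cells with endothelial (HUVEC) and MSC stromal cells. Novobiocin, ART-558 or RP6685 were tested singly and in combination with standard and investigational anticancer drugs. Each was titrated in half-log steps from near clinical Cmax, or from 10 microM where Cmax was unknown.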

[1] = second compound 0.0316 µM, first compound 0.0316 µM
[2] = second compound 0.0316 µM, first compound 0.1 µM
[3] = second compound 0.1 µM, first compound 0.0316 µM
[4] = second compound 0.1 µM, first compound 0.1 µM
[5] = second compound 0.316 µM, first compound 0.0316 µM
[6] = second compound 0.316 µM, first compound 0.1 µM
[7] = second compound 1 µM, first compound 0.0316 µM
[8] = second compound 1 µM, first compound 0.1 µM
[9] = second compound 3.16 µM, first compound 0.0316 µM
[10] = second compound 3.16 µM, first compound 0.1 µM
[11] = second compound 10 µM, first compound 0.0316 µM
[12] = second compound 10 µM, first compound 0.1 µM
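Further: spheroids exposed to the agents for one week.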
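Wherever viability, T/C is given: 100% = DMSO vehicle control wells.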

COc1ccc([C@@H](O)c2cc(-c3ncnc4cc(N5CCOCC5)ccc34)c(F)cc2Cl)nn1 + COC1C(OC(N)=O)C(O)C(Oc2ccc3c(O)c(NC(=O)c4ccc(O)c(CC=C(C)C)c4)c(=O)oc3c2C)OC1(C)C
> 10 µM: IC50 (second compound 0.0316 µM) | IC50 (second compound 0.1 µM) | IC50 (second compound 0.316 µM) | IC50 (second compound 1 µM) | IC50 (second compound 3.16 µM) | IC50 (second compound 10 µM)
inactive: viability, T/C [1] 95.1% | viability, T/C [2] 81.3% | viability, T/C (second compound 0.0316 µM, first compound 0.316 µM) 102% | viability, T/C (second compound 0.0316 µM, first compound 1 µM) 94.9% | viability, T/C (second compound 0.0316 µM, first compound 3.16 µM) 85.2% | viability, T/C (second compound 0.0316 µM, first compound 10 µM) 58.2% | viability, T/C [3] 105% | viability, T/C [4] 92.8% | viability, T/C (second compound 0.1 µM, first compound 0.316 µM) 102% | viability, T/C (second compound 0.1 µM, first compound 1 µM) 79.6% | viability, T/C (second compound 0.1 µM, first compound 3.16 µM) 77.8% | viability, T/C (second compound 0.1 µM, first compound 10 µM) 72.9% | viability, T/C [5] 110% | viability, T/C [6] 97% | viability, T/C (second compound 0.316 µM, first compound 0.316 µM) 96% | viability, T/C (second compound 0.316 µM, first compound 1 µM) 85.2% | viability, T/C (second compound 0.316 µM, first compound 3.16 µM) 76.6% | viability, T/C (second compound 0.316 µM, first compound 10 µM) 72.2% | viability, T/C [7] 96% | viability, T/C [8] 110% | viability, T/C (second compound 1 µM, first compound 0.316 µM) 99.5% | viability, T/C (second compound 1 µM, first compound 1 µM) 98.1% | viability, T/C (second compound 1 µM, first compound 3.16 µM) 85.8% | viability, T/C (second compound 1 µM, first compound 10 µM) 74.8% | viability, T/C [9] 84.4% | viability, T/C [10] 93.1% | viability, T/C (second compound 3.16 µM, first compound 0.316 µM) 101% | viability, T/C (second compound 3.16 µM, first compound 1 µM) 87.9% | viability, T/C (second compound 3.16 µM, first compound 3.16 µM) 93.6% | viability, T/C (second compound 3.16 µM, first compound 10 µM) 69.2% | viability, T/C [11] 86.1% | viability, T/C [12] 90% | viability, T/C (second compound 10 µM, first compound 0.316 µM) 107% | viability, T/C (second compound 10 µM, first compound 1 µM) 83.8% | viability, T/C (second compound 10 µM, first compound 3.16 µM) 88.6% | viability, T/C (second compound 10 µM, first compound 10 µM) 69.8%

Cn1ncnc1[C@H]1c2n[nH]c(=O)c3cc(F)cc(c23)N[C@@H]1c1ccc(F)cc1 + COC1C(OC(N)=O)C(O)C(Oc2ccc3c(O)c(NC(=O)c4ccc(O)c(CC=C(C)C)c4)c(=O)oc3c2C)OC1(C)C
inactive: viability, T/C (second compound 0.0316 µM, first compound 0.000316 µM) 109% | viability, T/C (second compound 0.0316 µM, first compound 0.001 µM) 93.7% | viability, T/C (second compound 0.0316 µM, first compound 0.00316 µM) 98.5% | viability, T/C (second compound 0.0316 µM, first compound 0.01 µM) 104% | viability, T/C [1] 91.8% | viability, T/C [2] 74% | viability, T/C (second compound 0.1 µM, first compound 0.000316 µM) 107% | viability, T/C (second compound 0.1 µM, first compound 0.001 µM) 102% | viability, T/C (second compound 0.1 µM, first compound 0.00316 µM) 105% | viability, T/C (second compound 0.1 µM, first compound 0.01 µM) 99.9% | viability, T/C [3] 96.8% | viability, T/C [4] 79.8% | viability, T/C (second compound 0.316 µM, first compound 0.000316 µM) 108% | viability, T/C (second compound 0.316 µM, first compound 0.001 µM) 107% | viability, T/C (second compound 0.316 µM, first compound 0.00316 µM) 115% | viability, T/C (second compound 0.316 µM, first compound 0.01 µM) 98% | viability, T/C [5] 96.6% | viability, T/C [6] 86.1% | viability, T/C (second compound 1 µM, first compound 0.000316 µM) 105% | viability, T/C (second compound 1 µM, first compound 0.001 µM) 98.6% | viability, T/C (second compound 1 µM, first compound 0.00316 µM) 91.7% | viability, T/C (second compound 1 µM, first compound 0.01 µM) 105% | viability, T/C [7] 94.6% | viability, T/C [8] 84.5% | viability, T/C (second compound 3.16 µM, first compound 0.000316 µM) 93.7% | viability, T/C (second compound 3.16 µM, first compound 0.001 µM) 89.9% | viability, T/C (second compound 3.16 µM, first compound 0.00316 µM) 89.6% | viability, T/C (second compound 3.16 µM, first compound 0.01 µM) 86.3% | viability, T/C [9] 102% | viability, T/C [10] 79.4% | viability, T/C (second compound 10 µM, first compound 0.000316 µM) 88.6% | viability, T/C (second compound 10 µM, first compound 0.001 µM) 75.6% | viability, T/C (second compound 10 µM, first compound 0.00316 µM) 94.7% | viability, T/C (second compound 10 µM, first compound 0.01 µM) 85.7% | viability, T/C [11] 87.1% | viability, T/C [12] 70.7%
> 0.1 µM: IC50 (second compound 0.0316 µM) | IC50 (second compound 0.1 µM) | IC50 (second compound 0.316 µM) | IC50 (second compound 1 µM) | IC50 (second compound 3.16 µM) | IC50 (second compound 10 µM)
